Consider four compounds from publication PMC10316653 (iScience, 2023).

A word on the IC50: it is the midpoint of a concentration-inhibition curve.

One test has as its system PKCγ. Conditions: reported selectivity profile, ref not given; cited from earlier work.
Test [1] has as its target T1, A2BAR (Homo sapiens, UniProt P29275).
T1 sequence (P29275 1-332): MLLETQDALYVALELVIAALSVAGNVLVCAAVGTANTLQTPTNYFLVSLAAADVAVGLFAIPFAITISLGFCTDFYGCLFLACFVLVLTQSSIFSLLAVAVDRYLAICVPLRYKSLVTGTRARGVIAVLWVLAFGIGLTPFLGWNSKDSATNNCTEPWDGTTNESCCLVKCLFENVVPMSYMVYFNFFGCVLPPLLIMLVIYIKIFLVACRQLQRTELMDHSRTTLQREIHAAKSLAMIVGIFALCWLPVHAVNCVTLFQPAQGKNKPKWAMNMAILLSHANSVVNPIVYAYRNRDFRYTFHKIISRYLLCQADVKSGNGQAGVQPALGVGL
The test is described as follows: cAMP accumulation assay in naive HEK293 cells. The format is cell-based. The note with it: naive HEK293 cells, PMA 1 μM, BAY 10 μM. On the technique in general: cAMP levels reflect the balance of adenylyl cyclase and phosphodiesterase activity.

The next test relates to PKCβ. The note with it: reported selectivity profile, ref not given; cited from earlier work.
A further test deals with PKCθ. Conditions: reported selectivity profile, ref not given; cited from earlier work.
The test system of another test is PKCδ. Conditions: reported selectivity profile, ref not given; cited from earlier work.
The test system of another test is PKCβI. Conditions: reported selectivity profile, ref not given; cited from earlier work.
In test [2] the target is T1, A2BAR. The test is described as follows: cAMP accumulation assay in HEK293-A2B cells. The note with it: HEK293-A2B cells. It is filed as cell-based.
The subject of a further test is PKCα. Conditions: reported selectivity profile, ref not given; cited from earlier work.
In the next test the test system is PKCβ2. The note with it: reported selectivity profile, ref not given; cited from earlier work.

Regarding `Cn1cc(C2=C(c3cn(C4CCN(Cc5ccccn5)CC4)c4ccccc34)C(=O)NC2=O)c2ccccc21` [enzastaurin], the IC50 in the test with PKCγ was […]; with PKCβ, […]. Moreover, the “effect on PKC (PMA)-induced enhancement of BAY-induced cAMP accumulation” value (from here on “effect on PKC (PMA)-induced enhancement”) at A2BAR [1] (inhibitor 30 nM) is listed as “did not inhibit PMA-induced enhancement”.
As for `CC(C)[C@@](C)(O)[C@@H]1CN(c2nc(-c3[nH]nc4ncccc34)c(F)cc2Cl)CCN1` [VTX-27], the “effect on PKC (PMA)-induced enhancement” value on A2BAR [1] (inhibitor 1 μM) is “did not significantly inhibit”. Further, the IC50 in the test on PKCθ was 0.08 nM; with PKCδ it was 16 nM.
On to `Cn1c2ccccc2c2c3c(c4c5ccccc5n(CCC#N)c4c21)CNC3=O` [GO6976], for which the IC50 with PKCβI was 6.2 nM; in the test with PKCα, 2.3 nM. Also, the “effect on PKC (PMA)-induced enhancement” value on A2BAR [1] (inhibitor 1 μM) is reported as “modest but significant inhibition”. At A2BAR [2] (inhibitor 30 nM), the “effect on PKC-induced A2BAR activation (cAMP)” value was “lack of inhibition”.
In the case of `CN(C)C[C@@H]1CCn2cc(c3ccccc32)C2=C(C(=O)NC2=O)c2cn(c3ccccc23)CCO1` [LY333531], the IC50 in the test with PKCβ2 was […]; with PKCγ, […]; with PKCβI, […]. Moreover, at A2BAR [1] (inhibitor 30 nM), the “effect on PKC (PMA)-induced enhancement” value is recorded as “did not inhibit PMA-induced enhancement”. The “effect on PKC-induced A2BAR activation (cAMP)” value is reported as “lack of inhibition” on A2BAR [2] (inhibitor 30 nM) and “significant inhibition” on A2BAR [2] (inhibitor 1 μM).
